Consider two molecules from US20040110844A1, “Anti-tumor pharmaceutical composition comprising N-vanillyl fatty acid amide” (KUREHA CHEMICAL INDUSTRY COMPANY, Limited, priority 2002, published 2004).

Data set [1] has as its system B16F10 melanoma cell. Briefly: Growth of B16F10 melanoma cells, number of cells counted with trypan blue and hemocytometer. The data set is classed as cell-based, mouse. Particulars: for cells in culture relative to the control culture: 50 μM; for cells in culture relative to the control culture / cells in culture relative to the control culture (survival ratio): cultured for 48 hours, B16F10; for cells in culture relative to the control culture (survival ratio): 100 μM; for action on the growth of melanoma cells (in words): 10-300 μM capsaicin, 10-100 μM Dohevanil, 48 hours, versus control. How it is done:
B16F10 melanoma cell used for the comparison was a malignant melanoma cell derived from a mouse. The melanoma cells were cultured under 5% CO2 condition at 37 degrees Celsius in DMEM culture medium (pH7.2) including 10% of bovine fetus serum and penicillin/streptomycin solution. After the cells reached from 70% to 80% confluent, the cells were treated with trypsin-EDTA to release from the wall of culture device and were subjected to passage culture.
The number of cells were measured by the process comprising suspending the cells collected, sufficiently mixing the suspension with a trypan blue stain solution in the same volume of the suspension, watching the suspension using a phase contrast microscope and measuring the number of cells with a hemocytometer (Burker-Turk hemocytometer, Nippon Rinsho Kikai Kogyo Ltd.)
In order to examine the action of capsaicin to the growth of melanoma cells, the number of the cells were measured after 10 μM, 30 μM, 50 μM, 100 μM, or 300 μM of capsaicin was added to the MDEM media in which the melanoma cells exist and then the cells were cultured for 48 hours. […] In order to examine the action of Dohevanil to the growth of melanoma cells, the number of the cells were measured in the same manner as conducted for capsaicin except that capsaicin was replaced with Dohevanil. The melanoma cells were cultured in 10 μM, 30 μM, 50 μM, or 100 μM of Dohevanil.

Data set [2] deals with B16F10 melanoma cell. Briefly: Phase contrast microscope observation of treated melanoma cells. The data set is classed as cell-based, mouse. The note with it: Dohevanil 50 μM compared with capsaicin 300 μM. How it is done:
The observation of cytomorphology using the light microscope was carried out by counting with TMS (NIKON Corporation) and photographing, after plating the cells on a multiplate, and culturing it for a given time.
The shape and appearance of the melanoma cells treated in the presence of capsaicin in the concentration of 300 μM or Dohevanil in the concentration of 50 μM was observed using a phase contrast microscope.

For data set [3], the system named is B16F10 melanoma cell. Briefly: Hoechst 33342 fluorescence microscopy for apoptosis in melanoma cells. It counts as cell-based, mouse. The note with it: Hoechst33342, each concentration, versus control. As to the method:
The observation using the fluorescence microscope was carried out by the process comprising washing with PBS (−) a suspension of B16F10 cells treated with an agent for a given time (1×10^6 cells/ml), fixing the cells with 4% paraformaldehyde overnight, washing the cell fixed solution with PBS(−), suspending the cells in 20 μl of PBS (−), mixing 2 μl of fluorescence indicator (Hoechst 33342 (1 mM)) with each 5 μl of the cell suspension, placing a cover glass on the mixture, watching it using the fluorescence microscope (U region) and photographing.
The shape of the cells was observed using Hoechst33342 (dye) which specifically combined with the chromosome by fluorescence microscope to find out whether or not the cell death by capsaicin or Dohevanil was due to the apoptosis. As a result, the aggregation of chromatins and the disorder of nuclear shape, which are characteristics of the cell death by apoptosis, were observed by comparison with the control in each concentration of capsaicin or Dohevanil.

For data set [4], the system named is HeLa cells. Briefly: HeLa cell growth by WST-1 method and LDH active release. It counts as cell-based, human. Particulars: for survival ratio of the cells: 100 μM, HeLa cells; for action on the growth of HeLa cells (in words): 10, 30, 50, 100 μM. As to the method:
(§1) In order to make a comparison between the anti-tumor effects of capsaicin and Dohevanil, the following experimentation was carried out using HeLa cells derived from human uterocervical cancer as a tomor cell and NIH/3T3 cells as a normal cell. These cells used in the experimentation were cultured in RPMI-1640 medium (pH7.2) with 5% bovine fetal serum under the culture conditions being maintained in 5% CO2 and at 37 degrees Celsius. capsaicin or Dohevanil was added to each of the cell suspensions in the concentration of 10 μM, 30 μM, 50 μM, or 100 μM and then the cells were cultured. In this comparative example, the capability of cell growth was measured by WST-1 method and LDH active release into the supernatant as an indicator.
(§2) In this connection, the term “WST-1 method” used in the example means a method comprising reducing a formazan by using a reductase activity of mitochondria and determining an absorption of the coloring. The absorption may be used as an indicator of the cell growth because the reductase activity of mitochondria is lost if the cells die. The term “LDH active release” as used herein means that LDH (lactate dehydrogenase) is released due to a destruction of cell membrane accompanied with a cell death, and the measured value of the active release can be used as an indicator of the cell death.

Data set [5] has as its system NIH/3T3 cells. Briefly: NIH/3T3 normal cell growth by WST-1 method and LDH active release. It counts as cell-based. The note with it: concentration 30 μM or less. As to the method:
as §1, §2

For data set [6], the system named is caspase 3 activity. Briefly: Measurement of caspase 3 activity (Example 6). The data set is classed as cell-based.
Data set [7] relates to human acute leukemia cell U937. Briefly: U937 cell growth by cell differential staining with trypan blue. The data set is classed as cell-based. The note with it: for survival ratio of the cells: 100 μM, U937 cells; for action on the growth of U937 cells (in words): 10, 30, 50, 100 μM. How it is done:
In order to make a comparison between the anti-leukemic cell effects of capsaicin and Dohevanil, the following experimentation was carried out using a human acute leukemia cell U937. The U937 cells were cultured in RPMI-1640 medium (pH7.2) with 5% bovine fetal serum under the culture conditions being maintained in 5% CO2 and at 37 degrees Celsius. capsaicin or Dohevanil was added to each of the cell suspensions in the concentration of 10 μM, 30 μM, 50 μM,or 100 μM and then the cells were cultured. In this comparative example, the capability of cell growth was evaluated using the measured value as an indicator obtained by a method for the cell differential staining with trypan blue.
The method for the cell differential staining with trypan blue is a method utilizing the characters that trypan blue combines with a protein to color in blue and that trypan blue enters into the dead cells due to the loss of a membrane function to prevent from its invasion. Since the dead cells are colored in blue with trypan blue, the survival ratio of the cells can be determined by counting the stained cells using a microscope.

Data set [8] relates to caspase 3 activity. Briefly: Measurement of caspase 3 activity (Example 7, U937). The data set is classed as cell-based, human. How it is done: In particular, when the concentration is 100 μM, although the survival ratio of the cells with capsaicin is about 50%, that with Dohevanil is zero (0) %. Accordingly, it is apparent as compared with capsaicin that Dohevanil is very low in the degree of hotness and stimulus, and coincidentally has a higher anti-leukemic cell effects.

The subject of data set [9] is Hela cell (uterocervica cancer cell). The note with it: low concentration; cited from earlier work.
In data set [10] the test system is HL-60 cell (acute promyelocytic leukemia cell). Particulars: low concentration; cited from earlier work.
The subject of data set [11] is normal cells of human mammary gland epithelium and of liver and kidney of the rat. The note with it: cited from earlier work.

For the molecule `CC/C=C\C/C=C\C/C=C\C/C=C\C/C=C\C/C=C\CCC(=O)NCc1ccc(O)c(OC)c1` [Dohevanil, N-vanillyl-4,7,10,13,16,19-Docosahexaenamide], in [1], the “cells in culture relative to the control culture” value was “about 10%”, the “cells in culture relative to the control culture (survival ratio)” value is 0% and the “action on the growth of melanoma cells (in words)” value is reported as “suppressed the growth of the cells depending on the concentration”. The “melanoma cells adhered to the wall of culture vessel (in words)” value in data set [2] is listed as “extremely reduced”. The “induction of apoptosis (aggregation of chromatins, disorder of nuclear shape)” value in data set [3] was “strongly induces the apoptosis”. Besides, in [4], the “survival ratio of the cells” value is reported as 0% and the “action on the growth of HeLa cells (in words)” value was “suppress the growth of HeLa cells depending on their concentrations”. Further, in [5], the “action to NIH/3T3 normal cells (in words)” value was “hardly act”. Moreover, the “apoptosis according to caspase 3 activity” value (from here on “apoptosis according”) in data set [6] is listed as “induce the apoptosis to cause the cell death”. In data set [7], the “survival ratio of the cells” value came out at 0% and the “action on the growth of U937 cells (in words)” value is on record as “suppress the growth of U937 cells depending on their concentrations”. In addition, the “apoptosis according” value in data set [8] is “induce the apoptosis to cause the cell death”.

Regarding `COc1cc(CNC(=O)CCCCC=CC(C)C)ccc1O` [capsaicin, 8-methyl-N-vanillyl-6-nonenamide], in [1], the “cells in culture relative to the control culture” value was “about 60%”, the “cells in culture relative to the control culture (survival ratio)” value was “about 50%” and the “action on the growth of melanoma cells (in words)” value was “suppressed the growth of the cells depending on the concentration”. Further, in [3], the “induction of apoptosis (aggregation of chromatins, disorder of nuclear shape)” value was “induce the apoptosis to melanoma cells”. In data set [4], the “survival ratio of the cells” value is “about 50%” and the “action on the growth of HeLa cells (in words)” value is recorded as “suppress the growth of HeLa cells depending on their concentrations”. Further, the “action to NIH/3T3 normal cells (in words)” value in [5] was “hardly act”. In data set [6], the “apoptosis according” value was “induce the apoptosis to cause the cell death”. Besides, in data set [7], the “survival ratio of the cells” value is “about 50%” and the “action on the growth of U937 cells (in words)” value is “suppress the growth of U937 cells depending on their concentrations”. Besides, the “apoptosis according” value in [8] is listed as “induce the apoptosis to cause the cell death”. In addition, the “proliferative inhibitory effect (in words)” value in data set [9] is on record as “proliferative inhibitory effect in a low concentration”. Besides, the “proliferative inhibitory effect (in words)” value in data set [10] is “proliferative inhibitory effect in a low concentration”. In [11], the “proliferative inhibitory effect to normal cells (in words)” value is listed as “without any proliferative inhibitory effects”.
